Legend:
[1] = test system: Purinergic (P2X1/P2X2/P2X3/P2X4/P2X7); assay: Purinergic receptor QPatch patch clamp, agonist and antagonist modes; assay type: cell-based, human; details: agonist and antagonist modes at 3 and 10 μM
Procedure: Human recombinant purinergic receptor expressing HEK293 cells were used and receptor activity was evaluated at room temperature using QPatch HT® (Sophion Bioscience A/S, Denmark) automatic parallel patch clamp system. 2CF3-DHE was evaluated in both agonist and antagonist modes at 3 and 10 μM. Each concentration was tested in triplicates.

human 5-HT1B receptor = human 5-HT1B receptor (Homo sapiens, UniProt P28222); assay: GTPγS agonist assay, 5-HT1B
Sequence of human 5-HT1B receptor (P28222 whole entry): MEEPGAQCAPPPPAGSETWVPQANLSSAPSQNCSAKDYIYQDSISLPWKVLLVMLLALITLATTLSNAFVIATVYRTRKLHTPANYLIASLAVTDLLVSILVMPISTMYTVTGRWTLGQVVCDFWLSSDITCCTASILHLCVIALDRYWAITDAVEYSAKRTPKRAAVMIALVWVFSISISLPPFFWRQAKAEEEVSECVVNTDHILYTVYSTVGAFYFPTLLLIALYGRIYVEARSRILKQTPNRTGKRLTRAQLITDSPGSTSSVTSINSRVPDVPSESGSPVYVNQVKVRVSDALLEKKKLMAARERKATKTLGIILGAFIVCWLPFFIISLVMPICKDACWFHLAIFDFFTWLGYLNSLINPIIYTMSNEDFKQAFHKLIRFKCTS
Procedure: (§1) The mixture was shaken for 2 minutes prior to a 60 min incubation. It was then centrifuged for 10 minutes and counted for 1 minute with a Perkin Elmer TopCount reader. The resulting emission of light was recorded using a luminometer. Agonist percentage activation determinations were obtained by comparing with the Emax of the reference agonist α-methyl-5-HT.

Adenosine A2a = target: T1, Adenosine A2a (Homo sapiens, UniProt P29274); assay: Adenosine A2a cAMP HTRF assay; assay type: cell-based; details: HEK293, cAMP
T1 construct: expressed in transfected cells; host or cells: HEK293
T1 sequence (P29274 whole entry): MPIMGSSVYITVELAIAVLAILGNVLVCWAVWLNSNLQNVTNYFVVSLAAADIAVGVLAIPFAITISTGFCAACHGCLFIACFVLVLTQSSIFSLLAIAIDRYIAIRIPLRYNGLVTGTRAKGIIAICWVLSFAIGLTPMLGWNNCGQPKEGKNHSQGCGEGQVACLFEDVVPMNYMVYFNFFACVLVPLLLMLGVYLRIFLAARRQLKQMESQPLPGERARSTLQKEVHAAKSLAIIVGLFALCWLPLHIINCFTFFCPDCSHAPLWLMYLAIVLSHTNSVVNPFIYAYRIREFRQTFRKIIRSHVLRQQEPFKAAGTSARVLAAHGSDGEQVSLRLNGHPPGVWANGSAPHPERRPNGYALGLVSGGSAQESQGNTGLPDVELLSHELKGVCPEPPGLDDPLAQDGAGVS
Procedure: Cells expressing the human recombinant receptor of interest were grown in media without antibiotic and detached by gentle flushing with PBS-EDTA (5 mM EDTA), recovered by centrifugation and resuspended in assay buffer (KRH: 5 mM KCl, 1.25 mM MgSO4, 124 mM NaCl, 25 mM HEPES, 13.3 mM glucose, 1.25 mM KH2PO4, 1.45 mM CaCl2, 0.5 g/L BSA). Dose response curves were performed in parallel with the reference compounds. For agonist tests (96-well plates), 12 μL of cells was mixed with 12 μL of the test compound at increasing concentrations and then incubated for 30 minutes at room temperature. Lysis buffer was added and after a 1 hour incubation, cAMP concentrations was determined according to the manufacturer specification with the HTRF kit. For antagonist tests (96-well plates), 12 μL of cells was mixed with 6 μL of the test compound at increasing concentrations and then incubated for 10 minutes. 6 μL of the reference agonist was added at a final concentration corresponding to the historical EC80. The plates were then incubated for 30 minutes at room temperature. Lysis buffer was added and after a 1 hour incubation, cAMP concentrations were determined according to the manufacturer specification, with the HTRF kit.

[2] = test system: NMDA (NR1/NR2A/NR2B/NR2C/NR2D); assay: NMDA receptor Fluo-8 calcium FLIPR assay, agonist and antagonist; assay type: cell-based, human; details: NMDA channels in HEK293
Procedure: The following channels were evaluated: Cloned NMDA receptor (NR1/NR2A) channel (encoded by the GRIN1 and GRIN2A genes, coexpressed in HEK293 cells; Cloned NMDA receptor (NR1/NR2B) channel (encoded by the GRIN1 and GRIN2B genes, coexpressed in HEK293 cells; Cloned NMDA receptor (NR1/NR2C) channel (encoded by the GRIN1 and GRIN2C genes, coexpressed in HEK293 cells; and Cloned NMDA receptor (NR1/NR2D) channel (encoded by the GRIN1 and GRIN2D genes, transiently coexpressed in HEK293 cells.
For the agonist assessment, the effect of 2-CF3-DHE was evaluated in the absence of the positive control agonist. The signal, elicited in the presence of the agonist (100 μM Glutamic acid+20 μM Glycine), was set to 100% activation and the signal in the presence of the vehicle control (Mg^2+-free HB-PS) was set to 0% activation.
For the antagonist assessment, NR1/NR2A and NR1/NR2B was activated with the positive control agonist (100 μM Glutamic acid+20 μM Glycine). The ability of 2-CF3-DHE to inhibit the signal was examined after agonist stimulation and compared to the positive control antagonist (MK-801).

Calcitonin (CGRP) = target: T2, Calcitonin (CGRP) (Homo sapiens, UniProt O60894+Q16602); assay: CGRP receptor Aequorin assay; assay type: cell-based
T2 construct: expressed in transfected cells; host or cells: CHO-AEQ (CHO-K1 with mitochondrial apoaequorin)
T2 sequence (Q16602 23-461): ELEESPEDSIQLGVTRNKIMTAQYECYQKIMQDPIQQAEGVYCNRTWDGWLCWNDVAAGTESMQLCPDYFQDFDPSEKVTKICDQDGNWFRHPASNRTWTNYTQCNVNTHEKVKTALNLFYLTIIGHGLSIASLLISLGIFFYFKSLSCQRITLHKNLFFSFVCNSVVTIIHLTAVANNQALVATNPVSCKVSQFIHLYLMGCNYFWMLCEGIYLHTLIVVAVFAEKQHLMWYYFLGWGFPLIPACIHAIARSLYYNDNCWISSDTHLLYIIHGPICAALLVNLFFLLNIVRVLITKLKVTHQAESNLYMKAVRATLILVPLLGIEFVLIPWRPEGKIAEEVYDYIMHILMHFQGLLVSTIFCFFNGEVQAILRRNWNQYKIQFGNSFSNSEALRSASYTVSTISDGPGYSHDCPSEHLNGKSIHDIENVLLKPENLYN
T2 sequence (O60894 27-148 partner): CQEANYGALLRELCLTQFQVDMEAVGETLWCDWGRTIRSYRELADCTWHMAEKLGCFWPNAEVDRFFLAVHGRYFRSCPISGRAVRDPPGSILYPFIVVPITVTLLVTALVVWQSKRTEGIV
Procedure: CHO-K1 cells coexpressing mitochondrial apoaequorin and the recombinant human receptor of interest were grown to mid-log phase in culture media without antibiotics and then detached with PBS-EDTA, centrifuged and resuspended in assay buffer (DMEM/HAM's F12 with HEPES, without phenol red+0.1% BSA, protease free) at a concentration of 1×10^6 cell/mL. Cells were incubated at room temperature for at least 4 hours with coelenterazine h. Reference agonist/antagonist was tested to evaluate the performance of the assay and to determine EC50/IC50.
50 μL of the cell suspension was mixed with 50 μL of test or reference agonist in a 96-well plate. […] For antagonist testing, 100 μL of the reference agonist at its EC80 was injected on the mix of cells and test compound, following an incubation of 15 minutes after the first injection. The resulting emission of light was r recorded using Hamamatsu Functional Drug Screening System 6000 (FDSS 6000) luminometer. To standardize the emission of recorded light (and determine of the “100% signal”) across plates and across different experiments, some wells contained 100 μM digitonin or a saturating concentration of ATP (20 μM).

human 5-HT1D receptor = human 5-HT1D receptor (Homo sapiens, UniProt P28221); assay: GTPγS agonist assay, 5-HT1D; assay type: biochemical
Sequence of human 5-HT1D receptor (P28221 whole entry): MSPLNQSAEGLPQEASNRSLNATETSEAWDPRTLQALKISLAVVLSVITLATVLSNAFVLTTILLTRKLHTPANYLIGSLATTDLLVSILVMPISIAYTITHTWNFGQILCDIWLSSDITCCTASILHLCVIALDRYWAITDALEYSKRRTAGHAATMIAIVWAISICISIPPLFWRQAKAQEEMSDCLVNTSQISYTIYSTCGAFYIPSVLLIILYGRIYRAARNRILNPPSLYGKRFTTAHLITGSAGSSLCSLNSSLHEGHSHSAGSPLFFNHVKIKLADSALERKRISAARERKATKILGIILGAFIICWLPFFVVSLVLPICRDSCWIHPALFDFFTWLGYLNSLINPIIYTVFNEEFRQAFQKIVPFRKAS
Procedure: as §1

CN1C[C@H](C(=O)N[C@]2(C)O[C@@]3(O)[C@@H]4CCCN4C(=O)[C@H](Cc4ccccc4)N3C2=O)CC2c3cccc4[nH]c(C(F)(F)F)c(c34)CC21 (stereo partly shown) [2-CF3-dihydroergotamine]
Activity (Agonism: EC50; Antagonism: IC50) [1]: Inactive
EC50 (human 5-HT1B receptor): 406 nM
Emax (Adenosine A2a): 25%
EC50 (Adenosine A2a; read-out: EC50, Adenosine A2a agonism): 5.27 nM
Activity (Agonism: EC50; Antagonism: IC50) [2]: Inactive
Activity (Agonism: EC50; Antagonism: IC50) (Calcitonin (CGRP)): Inactive
EC50 (human 5-HT1D receptor): 13.6 nM

— US20150133456A1, “FLUOROERGOLINE DERIVATIVES AND USES THEREOF” (MAP PHARMACEUTICALS, INC., priority 2012, published 2015)
